According to patent US20150344540A1, “NOVEL GLP-1 RECEPTOR AGONISTS WITH CHOLESTEROL EFFLUX ACTIVITY” (NOVO NORDISK A/S, priority 2012, published 2015):
Where a SMILES comes first, the peptide text is derived from it. [ ]: non-standard residue; d: D form. Aib = CC(C)(N)C(=O)O

Test system: Mouse monocyte/macrophage cell line, RAW 264.7
Test: Cholesterol efflux assay (3H-cholesterol, macrophage cell line)
Type: cell-based
Conditions: RAW 264.7, 4 hrs incubation, 0.1% human serum albumin; for 4 h Cholesterol Efflux Emax: ABCA1-mediated efflux; for EC50: read-out: 4 h Cholesterol Efflux EC50, ABCA1-mediated efflux (CPT-cAMP induced minus non-induced)

Row | Compound | 4 h Cholesterol Efflux Emax [%] | EC50 [nM]
1 | CC[C@H](C)[C@H](NC(=O)[C@H](Cc1ccccc1)NC(=O)[C@H](CCC(=O)O)NC(=O)[C@H](CCCCN)NC(=O)[C@H](C)NC(=O)[C@H](C)NC(=O)[C@H](CCC(N)=O)NC(=O)CNC(=O)[C@H](CCC(=O)O)NC(=O)[C@H](CC(C)C)NC(=O)[C@H](Cc1ccc(O)cc1)NC(=O)[C@H](CO)NC(=O)[C@H](CO)NC(=O)[C@@H](NC(=O)[C@H](CC(=O)O)NC(=O)[C@H](CO)NC(=O)[C@@H](NC(=O)[C@H](Cc1ccccc1)NC(=O)[C@@H](NC(=O)CNC(=O)[C@H](CCC(=O)O)NC(=O)[C@H](C)NC(=O)[C@@H](N)Cc1c[nH]cn1)[C@@H](C)O)[C@@H](C)O)C(C)C)C(=O)N[C@@H](C)C(=O)N[C@@H](Cc1c[nH]c2ccccc12)C(=O)N[C@@H](CC(C)C)C(=O)N[C@H](C(=O)N[C@@H](CCCCN)C(=O)NCC(=O)N[C@@H](CCCNC(=N)N)C(=O)NCC(=O)O)C(C)C [GLP-1(7-37), reference compound] | <10 | –
2 | CC[C@H](C)[C@H](NC(=O)[C@H](Cc1ccccc1)NC(=O)[C@H](CCC(=O)O)NC(=O)[C@H](CCCCN)NC(=O)[C@@H](NC(=O)[C@H](C)NC(=O)[C@H](CCC(=O)O)NC(=O)CNC(=O)[C@H](CCC(=O)O)NC(=O)[C@H](CC(C)C)NC(=O)[C@H](Cc1ccc(O)cc1)NC(=O)[C@H](CO)NC(=O)[C@H](CO)NC(=O)[C@@H](NC(=O)[C@H](CC(=O)O)NC(=O)[C@H](CO)NC(=O)[C@@H](NC(=O)[C@H](Cc1ccccc1)NC(=O)[C@@H](NC(=O)CNC(=O)[C@H](CCC(=O)O)NC(=O)C(C)(C)NC(=O)[C@@H](N)Cc1c[nH]cn1)[C@@H](C)O)[C@@H](C)O)C(C)C)C(C)C)C(=O)N[C@@H](C)C(=O)N[C@@H](Cc1c[nH]c2ccccc12)C(=O)N[C@@H](CC(C)C)C(=O)N[C@H](C(=O)N[C@@H](CCC(=O)O)C(=O)N[C@@H](CCCCN)C(=O)NC(C)(C)C(=O)N[C@@H](CCCCN)C(=O)N[C@@H](CCC(=O)O)C(=O)N[C@@H](Cc1ccccc1)C(=O)N[C@@H](CC(C)C)C(=O)N[C@@H](CCC(=O)O)C(=O)N[C@@H](CCCCN)C(=O)N[C@H](C(=O)O)C(C)C)C(C)C [Compound 98, [Aib8,Glu23,Val25,Glu34,Lys35,Aib36,Lys37]-GLP-1-(7-37)-peptidyl-Glu-Phe-Leu-Glu-Lys-Val] | 132 | 430
3 | Ac-DWFKAFYDKVAEKFKEAF-NH2 (N-terminus and C-terminus assumed) [Compound L-4F, reference compound] | 108 | –
4 | CC[C@H](C)[C@H](NC(=O)[C@H](Cc1ccccc1)NC(=O)[C@H](CCC(=O)O)NC(=O)[C@H](CCCNC(=N)N)NC(=O)[C@@H](NC(=O)[C@H](C)NC(=O)[C@H](CCC(=O)O)NC(=O)[C@H](CCC(=O)O)NC(=O)[C@H](CCC(=O)O)NC(=O)[C@H](CCSC)NC(=O)[C@H](CCC(N)=O)NC(=O)[C@H](CCCCN)NC(=O)[C@H](CO)NC(=O)[C@H](CC(C)C)NC(=O)[C@H](CC(=O)O)NC(=O)[C@H](CO)NC(=O)[C@@H](NC(=O)[C@H](Cc1ccccc1)NC(=O)[C@@H](NC(=O)CNC(=O)[C@H](CCC(=O)O)NC(=O)C(C)(C)NC(=O)[C@@H](N)Cc1c[nH]cn1)[C@@H](C)O)[C@@H](C)O)C(C)C)C(=O)N[C@@H](CCC(=O)O)C(=O)N[C@@H](Cc1c[nH]c2ccccc12)C(=O)N[C@@H](CC(C)C)C(=O)N[C@@H](CCCCN)C(=O)N[C@@H](CC(N)=O)C(=O)N[C@@H](CCCCN)C(=O)NCC(=O)N[C@@H](CC(C)C)C(=O)N[C@@H](CCC(=O)O)C(=O)N[C@@H](Cc1ccccc1)C(=O)N[C@@H](CC(C)C)C(=O)N[C@@H](CCC(=O)O)C(=O)N[C@@H](CC(C)C)C(=O)N[C@@H](CC(C)C)C(N)=O [Compound 33, [Aib2,Glu21,Lys29,Leu31,Glu32,Phe33,Leu34,Glu35,Leu36,Leu371-Exendin-4-(1-37)-peptide amide] (H-H[Aib]EGTFTSDLSKQMEEEAVREFIEWLKNKGLEFLELL-NH2; N-terminus assumed) | 87 | –
5 | CC[C@H](C)[C@H](NC(=O)[C@H](Cc1ccccc1)NC(=O)[C@H](CCC(=O)O)NC(=O)[C@H](CCCCN)NC(=O)[C@@H](NC(=O)[C@H](C)NC(=O)[C@H](CCC(=O)O)NC(=O)CNC(=O)[C@H](CCC(=O)O)NC(=O)[C@H](CC(C)C)NC(=O)[C@H](Cc1ccc(O)cc1)NC(=O)[C@H](CO)NC(=O)[C@H](CO)NC(=O)[C@@H](NC(=O)[C@H](CC(=O)O)NC(=O)[C@H](CO)NC(=O)[C@@H](NC(=O)[C@H](Cc1ccccc1)NC(=O)[C@@H](NC(=O)CNC(=O)[C@H](CCC(=O)O)NC(=O)C(C)(C)NC(=O)[C@@H](N)Cc1c[nH]cn1)[C@@H](C)O)[C@@H](C)O)C(C)C)C(C)C)C(=O)N[C@@H](C)C(=O)N[C@@H](Cc1c[nH]c2ccccc12)C(=O)N[C@@H](CC(C)C)C(=O)N[C@H](C(=O)N[C@@H](CCC(=O)O)C(=O)N[C@@H](CCCCN)C(=O)N[C@@H](Cc1ccccc1)C(=O)N[C@@H](CCCCN)C(=O)N[C@@H](CCC(=O)O)C(=O)N[C@@H](Cc1ccccc1)C(=O)N[C@@H](Cc1ccccc1)C(N)=O)C(C)C [Compound 93, [Aib8,Glu23,Val25,Glu34,Lys35,Phe36,Lys37]-GLP-1-(7-37)-peptidyl-Glu-Phe-Phe amide] (H-H[Aib]EGTFTSDVSSYLEGEAVKEFIAWLVEKFKEFF-NH2) | 113 | –
6 | CC[C@H](C)[C@H](NC(=O)[C@H](Cc1ccccc1)NC(=O)[C@H](CCC(=O)O)NC(=O)[C@H](CCCNC(=N)N)NC(=O)[C@@H](NC(=O)[C@H](C)NC(=O)[C@H](CCC(=O)O)NC(=O)CNC(=O)[C@H](CCC(=O)O)NC(=O)[C@H](CC(C)C)NC(=O)[C@H](Cc1ccc(O)cc1)NC(=O)[C@H](CO)NC(=O)[C@H](CO)NC(=O)[C@@H](NC(=O)[C@H](CC(=O)O)NC(=O)[C@H](CO)NC(=O)[C@@H](NC(=O)[C@H](Cc1ccccc1)NC(=O)[C@@H](NC(=O)CNC(=O)[C@H](CCC(=O)O)NC(=O)C(C)(C)NC(=O)[C@@H](N)Cc1c[nH]cn1)[C@@H](C)O)[C@@H](C)O)C(C)C)C(C)C)C(=O)N[C@@H](C)C(=O)N[C@@H](Cc1c[nH]c2ccccc12)C(=O)N[C@@H](CC(C)C)C(=O)N[C@H](C(=O)N[C@@H](CCC(=O)O)C(=O)N[C@@H](CCCNC(=N)N)C(=O)NC(C)(C)C(=O)N[C@@H](CCCCN)C(=O)N[C@@H](CCC(=O)O)C(=O)N[C@@H](Cc1ccccc1)C(=O)N[C@@H](CC(C)C)C(N)=O)C(C)C [Compound 19, [Aib8,Glu23,Val25,Arg26,Glu34,Arg35,Aib36,Lys37]-GLP-1-(7-37)-peptidyl-Glu-Phe-Leu amide] (H-H[Aib]EGTFTSDVSSYLEGEAVREFIAWLVER[Aib]KEFL-NH2) | 83 | –
7 | CC[C@H](C)[C@H](NC(=O)[C@H](Cc1ccccc1)NC(=O)[C@H](CC(C)C)NC(=O)[C@H](CCCNC(=N)N)NC(=O)[C@@H](NC(=O)[C@H](C)NC(=O)[C@H](CCC(=O)O)NC(=O)CNC(=O)[C@H](CCC(=O)O)NC(=O)[C@H](CCSC)NC(=O)[C@H](CCC(N)=O)NC(=O)[C@H](CCCCN)NC(=O)[C@H](CO)NC(=O)[C@H](CC(C)C)NC(=O)[C@H](CC(=O)O)NC(=O)[C@H](CO)NC(=O)[C@@H](NC(=O)[C@H](Cc1ccccc1)NC(=O)[C@@H](NC(=O)CNC(=O)[C@H](CCC(=O)O)NC(=O)C(C)(C)NC(=O)[C@@H](N)Cc1c[nH]cn1)[C@@H](C)O)[C@@H](C)O)C(C)C)C(=O)N[C@@H](CCC(=O)O)C(=O)N[C@@H](Cc1c[nH]c2ccccc12)C(=O)N[C@@H](CC(C)C)C(=O)N[C@@H](CCCCN)C(=O)N[C@@H](CC(N)=O)C(=O)N[C@@H](CCCCN)C(=O)NC(C)(C)C(=O)N[C@@H](CC(C)C)C(=O)N[C@@H](CCC(=O)O)C(=O)N[C@@H](Cc1ccccc1)C(=O)N[C@@H](CC(C)C)C(=O)N[C@@H](CCC(=O)O)C(=O)N[C@@H](CC(C)C)C(=O)N[C@@H](CC(C)C)C(N)=O [Compound 12, [Aib2,Gly16,Lys29,Aib30,Leu31,Glu32,Phe33,Leu34,Glu35,Leu36,Leu371-Exendin-4-(1-37)-peptide amide] (H-H[Aib]EGTFTSDLSKQMEGEAVRLFIEWLKNK[Aib]LEFLELL-NH2; N-terminus assumed) | 86 | –
8 | CC[C@H](C)[C@H](NC(=O)[C@H](Cc1ccccc1)NC(=O)[C@H](CCC(=O)O)NC(=O)[C@H](CCCCN)NC(=O)[C@@H](NC(=O)[C@H](C)NC(=O)[C@H](CCC(=O)O)NC(=O)[C@@H]1CCCN1C(=O)[C@H](CCC(=O)O)NC(=O)[C@H](CC(C)C)NC(=O)[C@H](Cc1ccc(O)cc1)NC(=O)[C@H](CO)NC(=O)[C@H](CO)NC(=O)[C@@H](NC(=O)[C@H](CC(=O)O)NC(=O)[C@H](CO)NC(=O)[C@@H](NC(=O)[C@H](Cc1ccccc1)NC(=O)[C@@H](NC(=O)CNC(=O)[C@H](CCC(=O)O)NC(=O)C(C)(C)NC(=O)[C@@H](N)Cc1c[nH]cn1)[C@@H](C)O)[C@@H](C)O)C(C)C)C(C)C)C(=O)N[C@@H](C)C(=O)N[C@@H](Cc1c[nH]c2ccccc12)C(=O)N[C@@H](CC(C)C)C(=O)N[C@H](C(=O)N[C@@H](CCC(=O)O)C(=O)N[C@@H](CCCCN)C(=O)NC(C)(C)C(=O)N[C@@H](CCCCN)C(=O)N[C@@H](CCC(=O)O)C(=O)N[C@@H](Cc1ccccc1)C(=O)N[C@@H](CC(C)C)C(N)=O)C(C)C [Compound 101, [Aib8,Pro22,Glu23,Val25,Glu34,Lys35,Aib36,Lys37]-GLP-1-(7-37)-peptidyl-Glu-Phe-Leu amide] (H-H[Aib]EGTFTSDVSSYLEPEAVKEFIAWLVEK[Aib]KEFL-NH2; N-terminus assumed) | 92 | 280
